Measurements: patent publication US20220194938A1, “NOVEL COMPOUNDS AND PHARMACEUTICAL COMPOSITIONS THEREOF FOR THE TREATMENT OF INFLAMMATORY DISORDERS” (GALAPAGOS NV, priority 2019, published 2022)

Columns and labels:
human IRAK-4 = target: T1, human IRAK-4 (Homo sapiens, UniProt Q9NWZ3); assay: Phosphorylation IC50 determination for human IRAK-4 (ADP-Glo kinase assay); details: human IRAK-4, RIP140 substrate, Km ATP; read-out: IRAK4 ADPglo biochemical assay IC50
T1 construct: purchased Carna Biosciences 09 145
T1 sequence (Q9NWZ3 1-460): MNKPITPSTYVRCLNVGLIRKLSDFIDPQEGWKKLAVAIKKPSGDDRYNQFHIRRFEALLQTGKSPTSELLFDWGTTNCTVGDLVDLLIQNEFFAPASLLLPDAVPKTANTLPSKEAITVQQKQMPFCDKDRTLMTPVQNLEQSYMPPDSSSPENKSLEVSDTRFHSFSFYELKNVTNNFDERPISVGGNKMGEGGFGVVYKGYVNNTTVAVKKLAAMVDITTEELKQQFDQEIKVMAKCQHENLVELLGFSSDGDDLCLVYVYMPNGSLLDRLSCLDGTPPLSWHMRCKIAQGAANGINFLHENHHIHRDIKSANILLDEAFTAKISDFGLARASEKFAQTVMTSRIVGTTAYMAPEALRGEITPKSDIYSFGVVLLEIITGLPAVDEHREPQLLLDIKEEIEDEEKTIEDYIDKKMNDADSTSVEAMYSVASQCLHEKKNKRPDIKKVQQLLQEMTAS
Method: 3.1. Phosphorylation IC50 Determination for Human IRAK-4
The phosphorylation of the substrate RIP140 (SEQ ID1) by IRAK4 at Km ATP was detected with the ADP-Glo Kinase Assay (Promega, Cat #V9103), a luminescent kinase assay which measures the ADP formed from a kinase reaction. (Zegzouti et al. 2009) In a second step the kinase reaction was terminated and all the remaining ATP was depleted. In a final step the ADP was converted into ATP and this newly synthesized ATP was measured by using a luciferase/luciferin reaction with a luminescent reader. The luminescent signal positively correlated with kinase activity, in particular kinase inhibition giving a decrease of the luminescent signal.
For the semi-automated assay, the positive control (100% inhibition) was prepared by diluting 10 mM staurosporine stock mixture (20 μL) in water (3.8 mL) and DMSO (180 μL), thus resulting in a […] staurosporine solution at 1% DMSO (final concentration after further dilution in the kinase reaction).
For the automated assay, no pre-dilution of the 10 mM staurosporine stock was made. 10 mM staurosporine was spotted directly in the assay plate using acoustic dispensing and complemented with DMSO to result in a similar final concentration as mentioned above.
For the semi-automated assay, the negative control (0% inhibition) was prepared by mixing water (3.8 mL) and DMSO (200 μL) resulting in a final concentration of 1% DMSO after further dilution in the kinase reaction. For the automated assay no pre-dilution of DMSO was done. 100% DMSO was spotted directly on the assay plate.
The assay buffer solution was prepared at a concentration corresponding to 5 fold the final (most diluted) assay concentration by mixing a solution of 125 mM TRIS pH 7.5+0.05% Triton X-100+2.5 mM EGTA (5.27 mL) with 1M mgCl2 (72 μL), 1M DTT (57.6 μL), and 200 mM MnCl2 (360 μL).
For example, for the semi-automated method, the enzyme-substrate mixture was prepared by mixing water (3999 μL), assay buffer solution (1380 μL), 1 mM RIP140 (138 μL—SEQ ID1), and 200 ng/mL IRAK 4 (3.45 μL Carna Biosciences, 09 145).
For semi-automated method, the ATP mixture was prepared at a concentration corresponding to 2.5 fold the final (most diluted) assay concentration of the semi-automated method and 1.5 fold the final (most diluted) assay concentration of the automated method. For example, for the semi-automated method, the ATP mixture was prepared by mixing water (4126 μL), assay buffer solution (1380 μL), and 10 mM ATP (13.80 μL).
The assay was performed either in a semi-automated or fully automated manner. The assay volume and the incubation time of the ADP detection were different accordingly the method used.
3.1.3.1. Semi-Automated Assay
The compounds were prepared as a serial dilution of 10 point dose responses with 1/5 dilution steps in 100% DMSO starting from 2 mM highest concentration, diluted 1/20 in water. 1 μL was transferred dry to the assay plates.
On each assay plate 32 wells of each control (positive & negative) were added, followed by 2 μL enzyme-substrate mixture.
The reaction was started by adding 2 μL diluted ATP (final concentration Km ATP) on the assay plates. Plates were centrifuged for a few seconds at 1000 rpm followed by an incubation at r.t. for 120 min.
The reactions were stopped and the unconsumed ATP was depleted by adding 5 μL ADP-glo Reagent (Promega, Cat #V9103) to the reaction. The plates were quickly centrifuged at 1000 rpm and incubated at r.t. for 40 min corresponding to full ATP depletion.
The ADP was converted back to ATP and luciferase and luciferin were introduced to detect ATP by adding 10 μL kinase detection reagent (Promega, Cat #V9103) to the reaction. The plates were centrifuged for a few seconds at 1000 rpm and incubated at r.t. for a further 30 min.
Luminescent read out was performed on an Envision luminescent reader (Perkin Elmer). […]

[1] = tested on: pooled cryopreserved hepatocytes; assay: Metabolic stability in hepatocytes (mouse); type: in vitro ADME; details: 1 μM test compound
Method: (§1) 4.6. Metabolic Stability in Hepatocytes
(§2) The aim of this assay is to determine the metabolic stability of the compound in hepatocytes (cryopreserved) of different species. Low hepatocyte stability may result in the formation of unwanted metabolites, high clearance, and therefore is not desirable.
(§3) The decrease in parent was assessed by measuring the percentage remaining by LC-MS/MS analysis.
(§4) A 10 mM stock solution of test compound in DMSO was first diluted in DMSO to 3 mM, and then in modified Krebs-Henseleit buffer (Sigma, K3753) to 5 μM. This compound dilution was added to a suspension of pooled cryopreserved hepatocytes (BioreclamationIVT) at 37° C. under gentle shaking.
(§5) Final reaction conditions were: 1 μM of test compound, 0.03% DMSO, 0.5 million viable hepatocytes/mL, and 75 μL incubation volume.
(§6) Testosterone (1 μM) and 7-hydroxycoumarin (1 μM) were used, respectively as phase I and phase II metabolic reaction controls.
(§7) After 0, 10, 20, 45, 90, 120 and 180 min of incubation, the reaction was terminated with 225 μL of MeCN:MeOH (2:1) containing 100 ng/mL of diclofenac as analytical internal standard. Samples were mixed, centrifuged and the supernatant analyzed by LC-MS/MS.
(§8) The instrument responses (ratios of test compound and internal standard peak areas) were referenced to the zero time point samples (considered as 100%) in order to determine the percentage of compound remaining.
(§9) Plots of percentage compound remaining are used to determine the intrinsic clearance in the hepatocyte incubations using the following equations:
(§10) Scaled Clint[L/h/kg]=Clint[μL/min/10^6 cells]*#(10^6) cells/g liver*60*(1/10^6) Scaled Clint unbound [L/h/kg]=Clint [L/h/kg]/Fu,inc where: fu,inc equals hepatocyte binding, derived from microsomal binding (fu,mic) by following equation: […]

[2] = tested on: pooled cryopreserved hepatocytes; assay: Metabolic stability in hepatocytes (human); type: in vitro ADME; details: 1 μM test compound
Method: as §1, §2, §3, §4, §5, §6, §7, §8, §9, §10

SMILES: COc1cc2nc(CCC(C)(C)O)cn2cc1NC(=O)c1cccnc1O [Compound 9, 2-hydroxy-N-[2-(3-hydroxy-3-methyl-butyl)-7-methoxy-imidazo[1,2-a]pyridin-6-yl]pyridine-3-carboxamide]
- IC50 (human IRAK-4): 5 to 10 nM

SMILES: COc1cc2nc(CCC(C)(C)O)cn2cc1NC(=O)c1nc(C)ccc1Cl [Compound 11, 3-chloro-N-[2-(3-hydroxy-3-methyl-butyl)-7-methoxy-imidazo[1,2-a]pyridin-6-yl]-6-methyl-pyridine-2-carboxamide]
- IC50 (human IRAK-4): > 50 nM

SMILES: COc1cc2nc(CCC(C)(C)O)cn2cc1NC(=O)c1cccc(CC#N)n1 [Compound 14, 6-(cyanomethyl)-N-[2-(3-hydroxy-3-methyl-butyl)-7-methoxy-imidazo[1,2-a]pyridin-6-yl]pyridine-2-carboxamide]
- IC50 (human IRAK-4): 5 to 10 nM
- Mouse (Perc. remaining at 90 min) [1]: 23.5%
- Human (Perc. remaining at 90 min) [2]: 89.95%

SMILES: COc1cc2nc(CCC(C)(C)O)cn2cc1NC(=O)c1ccc(F)c(C)n1 [Compound 15, 5-fluoro-N-[2-(3-hydroxy-3-methyl-butyl)-7-methoxy-imidazo[1,2-a]pyridin-6-yl]-6-methyl-pyridine-2-carboxamide]
- IC50 (human IRAK-4): 0.1 to 5 nM
- Mouse (Perc. remaining at 90 min) [1]: 60.05%
- Human (Perc. remaining at 90 min) [2]: 48.5%

SMILES: COc1cc2nc(CCC(C)(C)O)cn2cc1NC(=O)c1cncc(C)n1 [Compound 16, N-[2-(3-hydroxy-3-methyl-butyl)-7-methoxy-imidazo[1,2-a]pyridin-6-yl]-6-methyl-pyrazine-2-carboxamide]
- IC50 (human IRAK-4): 10 to 50 nM
- Mouse (Perc. remaining at 90 min) [1]: 74.55%
- Human (Perc. remaining at 90 min) [2]: 29.2%

SMILES: COc1cc2nc(CCC(C)(C)O)cn2cc1NC(=O)c1cncc(C(F)(F)F)n1 [Compound 17, N-[2-(3-hydroxy-3-methyl-butyl)-7-methoxy-imidazo[1,2-a]pyridin-6-yl]-6-(trifluoromethyl)pyrazine-2-carboxamide]
- IC50 (human IRAK-4): 10 to 50 nM

SMILES: COc1cc2nc(CCC(C)(C)O)cn2cc1NC(=O)c1cccc(CO)n1 [Compound 21, 6-(hydroxymethyl)-N-[2-(3-hydroxy-3-methyl-butyl)-7-methoxy-imidazo[1,2-a]pyridin-6-yl]pyridine-2-carboxamide]
- IC50 (human IRAK-4): 0.1 to 5 nM
- Mouse (Perc. remaining at 90 min) [1]: 34.9%
- Human (Perc. remaining at 90 min) [2]: 71.95%

SMILES: COc1cc2nc(CCC(C)(C)O)cn2cc1NC(=O)c1cccn(C(C)C)c1=O [Compound 22, N-[2-(3-hydroxy-3-methyl-butyl)-7-methoxy-imidazo[1,2-a]pyridin-6-yl]-1-isopropyl-2-oxo-pyridine-3-carboxamide]
- IC50 (human IRAK-4): 10 to 50 nM
- Mouse (Perc. remaining at 90 min) [1]: 74.1%
- Human (Perc. remaining at 90 min) [2]: 99.75%

SMILES: COc1cc2nc(CCS(C)(=O)=O)cn2cc1NC(=O)c1cccn(C(F)F)c1=O [Compound 26, 1-(difluoromethyl)-N-[7-methoxy-2-(2-methylsulfonylethyl)imidazo[1,2-a]pyridin-6-yl]-2-oxo-pyridine-3-carboxamide]
- IC50 (human IRAK-4): 5 to 10 nM
- Human (Perc. remaining at 90 min) [2]: 106%

SMILES: CNC(=O)c1cc2nc(CCS(C)(=O)=O)cn2cc1NC(=O)c1cccc(C(F)(F)F)n1 [Compound 30, N-methyl-2-(2-methylsulfonylethyl)-6-[[6-(trifluoromethyl)pyridine-2-carbonyl]amino]imidazo[1,2-a]pyridine-7-carboxamide]
- IC50 (human IRAK-4): 10 to 50 nM

SMILES: COc1cc2nc(CCC(C)(C)O)cn2cc1NC(=O)c1ccc(F)c(Cl)n1 [Compound 32, 6-chloro-5-fluoro-N-[2-(3-hydroxy-3-methylbutyl)-7-methoxyimidazo[1,2-a]pyridin-6-yl]pyridine-2-carboxamide]
- IC50 (human IRAK-4): 10 to 50 nM

SMILES: CC(C)(O)CCc1cn2cc(NC(=O)c3cccc(C(F)(F)F)n3)c(Br)cc2n1 [Compound 36, N-[7-bromo-2-(3-hydroxy-3-methyl-butyl)imidazo[1,2-a]pyridin-6-yl]-6-(trifluoromethyl)pyridine-2-carboxamide]
- IC50 (human IRAK-4): 0.1 to 5 nM

SMILES: CN1CC(NC(=O)c2cc3nc(CCC(C)(C)O)cn3cc2NC(=O)c2cccc(C(F)(F)F)n2)C1 [Compound 43, 2-(3-hydroxy-3-methylbutyl)-N-(1-methylazetidin-3-yl)-6-(6-(trifluoromethyl)picolinamido)imidazo[1,2-a]pyridine-7-carboxamide]
- IC50 (human IRAK-4): 5 to 10 nM

SMILES: CC(C)(O)CCc1cn2cc(NC(=O)c3cccc(C(F)(F)F)n3)c(C(=O)NC3COC3)cc2n1 [Compound 44, 2-(3-hydroxy-3-methylbutyl)-N-(oxetan-3-yl)-6-(6-(trifluoromethyl)picolinamido)imidazo[1,2-a]pyridine-7-carboxamide]
- IC50 (human IRAK-4): 5 to 10 nM

SMILES: CC(C)(O)CCc1cn2cc(NC(=O)c3cccc(C(F)(F)F)n3)c(C(=O)NCC3CC3)cc2n1 [Compound 45, N-(cyclopropylmethyl)-2-(3-hydroxy-3-methylbutyl)-6-(6-(trifluoromethyl)picolinamido)imidazo[1,2-a]pyridine-7-carboxamide]
- IC50 (human IRAK-4): 5 to 10 nM

SMILES: CC(C)(O)CCc1cn2cc(NC(=O)c3cccc(C(F)(F)F)n3)c(C(=O)NC3(C)CC3)cc2n1 [Compound 46, 2-(3-hydroxy-3-methylbutyl)-N-(1-methylcyclopropyl)-6-(6-(trifluoromethyl)picolinamido)imidazo[1,2-a]pyridine-7-carboxamide]
- IC50 (human IRAK-4): 5 to 10 nM

SMILES: CC(C)(O)CCc1cn2cc(NC(=O)c3cccc(C(F)(F)F)n3)c(C(=O)NC3CCOC3)cc2n1 (stereo not shown) [Compound 47, 2-(3-hydroxy-3-methylbutyl)-N-(tetrahydrofuran-3-yl)-6-(6-(trifluoromethyl)picolinamido)imidazo[1,2-a]pyridine-7-carboxamide]
- IC50 (human IRAK-4): 5 to 10 nM
